Measurements from ChEMBL document CHEMBL6103654, “Design, Biological Characterization, and Discovery of Capromorelin Derivatives as Oral Growth Hormone Secretagogue Receptor Type 1a Agonist for the Treatment of Growth Hormone Deficiency” (J Med Chem, 2025).

Key:
[1] = Tmax in male Sprague-Dawley rat at 2 mg/kg, po administered as single dose measured after 4 hrs; type: ADME, organism-based; conditions: in vivo
Rattus norvegicus [2] = test: Induction of growth hormone level in Juvenile Sprague-Dawley rat blood at 0.1 mg/kg, po administered as single dose measured after 4 hrs by ELISA method (reference value: 32.5+/-4.5 ng/mL); type: functional
Rattus norvegicus [3] = test: Induction of growth hormone level in adult Sprague-Dawley rat blood by measuring AUC(0 to 40 mins) at 0.5 mg/kg, po administered as single dose by ELISA method (reference value: 7.0+/-1.7 ng/mL); type: functional, organism-based
Rattus norvegicus [4] = test: Induction of growth hormone level in adult Sprague-Dawley rat blood at 0.5 mg/kg, po administered as single dose measured after 40 mins by ELISA method (reference value: 14.4+/-6.9 ng/mL); type: functional
Rattus norvegicus [5] = test: Induction of growth hormone level in Juvenile Sprague-Dawley rat blood at 0.1 mg/kg, po administered as single dose measured after 10 mins by ELISA method (reference value: 23.2+/-5.6 ng/mL); type: functional
Rattus norvegicus [6] = test: Induction of growth hormone level in Juvenile Sprague-Dawley rat blood at 0.1 mg/kg, po administered as single dose measured immediately by ELISA method (reference value: 28.5+/-8.7 ng/mL); type: functional
Rattus norvegicus [7] = test: Induction of growth hormone level in adult Sprague-Dawley rat blood at 0.5 mg/kg, po administered as single dose measured immediately by ELISA method (reference value: 12.6+/-4.4 ng/mL); type: functional
Rattus norvegicus [8] = test: Induction of growth hormone level in Juvenile Sprague-Dawley rat blood at 0.1 mg/kg, po administered as single dose measured after 40 mins by ELISA method (reference value: 40.1+/-11.0 ng/mL); type: functional
CHO [9] = test: Agonist activity at monkey GHSR expressed in CHO cells at maximum concentration incubated for 60 min by FLIPR assay relative to control; type: cell-based; conditions: Macaca mulatta, filed as agonist
[10] = biological target: Growth hormone secretagogue receptor type 1 (Rattus norvegicus, UniProt O08725); test: Agonist activity at rat GHSR expressed in CHO cells incubated for 60 min by FLIPR assay; type: functional, cell-based
CHO [11] = test: Agonist activity at human GHSR expressed in CHO cells at maximum concentration incubated for 60 min by FLIPR assay relative to control; type: cell-based; conditions: filed as agonist
[12] = Clearance in male Sprague-Dawley rat plasma at 1 mg/kg, iv administered as single dose measured after 4 hrs; type: ADME, organism-based
CHO [13] = test: Agonist activity at dog GHSR expressed in CHO cells at maximum concentration incubated for 60 min by FLIPR assay relative to control; type: cell-based; conditions: Canis lupus familiaris, filed as agonist
[14] = biological target: Growth hormone secretagogue receptor type 1 (Rattus norvegicus) (UniProt O08725); test: Agonist activity at rat GHSR expressed in CHO cells at maximum concentration incubated for 60 min by FLIPR assay relative to control; type: functional, cell-based; conditions: filed as agonist
Rattus norvegicus [15] = test: Induction of growth hormone level in Juvenile Sprague-Dawley rat blood at 0.1 mg/kg, po administered as single dose measured after 20 mins by ELISA method (reference value: 29.1+/-8.6 ng/mL); type: functional
Rattus norvegicus [16] = test: Induction of growth hormone level in Juvenile Sprague-Dawley rat blood by measuring AUC(0 to 40 mins) at 0.1 mg/kg, po administered as single dose by ELISA method (reference value: 20.2+/-4.3 ng/mL); type: functional, organism-based; conditions: time 4.0 hrs
[17] = Agonist activity at monkey GHSR expressed in CHO cells incubated for 60 min by FLIPR assay; type: cell-based; conditions: Macaca mulatta, 1 h
[18] = Elimination half life in male Sprague-Dawley rat at 2 mg/kg, po administered as single dose measured after 4 hrs; type: ADME, organism-based; conditions: in vivo, read-out: beta t1/2 (converted)
[19] = Agonist activity at human GHSR expressed in CHO cells incubated for 60 min by FLIPR assay; type: cell-based; conditions: 1 h
Rattus norvegicus [20] = test: Induction of growth hormone level in Juvenile Sprague-Dawley rat blood at 0.1 mg/kg, po administered as single dose measured after 2 hrs by ELISA method (reference value: 26.5+/-7.3 ng/mL); type: functional
Rattus norvegicus [21] = test: Induction of growth hormone level in Juvenile Sprague-Dawley rat blood at 0.1 mg/kg, po administered as single dose measured after 1 hr by ELISA method (reference value: 45.2+/-12.5 ng/mL); type: functional
Rattus norvegicus [22] = test: Induction of growth hormone level in adult Sprague-Dawley rat blood at 0.5 mg/kg, po administered as single dose measured after 20 mins by ELISA method (reference value: 4.9+/-1.1 ng/mL); type: functional
[23] = Cmax in male Sprague-Dawley rat at 2 mg/kg, po administered as single dose measured after 4 hrs; type: ADME, organism-based; conditions: in vivo
[24] = Elimination half life in male Sprague-Dawley rat at 1 mg/kg, iv administered as single dose measured after 4 hrs; type: ADME, organism-based; conditions: in vivo, read-out: beta t1/2 (converted)
[25] = AUC in male Sprague-Dawley rat at 2 mg/kg, po administered as single dose measured after 4 hrs; type: ADME, organism-based; conditions: in vivo
Rattus norvegicus [26] = test: Induction of growth hormone level in adult Sprague-Dawley rat blood at 0.5 mg/kg, po administered as single dose measured after 10 mins by ELISA method (reference value: 13.7+/-7.2 ng/mL); type: functional
[27] = Volume of distribution in male Sprague-Dawley rat at 1 mg/kg, iv administered as single dose measured after 4 hrs; type: ADME, organism-based; conditions: in vivo
[28] = Oral bioavailability in male Sprague-Dawley rat at 2 mg/kg administered as single dose measured after 4 hrs; type: ADME, organism-based; conditions: in vivo
[29] = Agonist activity at dog GHSR expressed in CHO cells incubated for 60 min by FLIPR assay; type: cell-based; conditions: 1 h
Rattus norvegicus [30] = test: Induction of growth hormone level in Juvenile Sprague-Dawley rat blood at 10 mg/kg, po administered as single dose measured after 2 hrs by ELISA method (reference value: 26.5+/-7.3 ng/mL); type: functional
Rattus norvegicus [31] = test: Induction of growth hormone level in adult Sprague-Dawley rat blood at 10 mg/kg, po administered as single dose measured after 10 mins by ELISA method (reference value: 13.7+/-7.2 ng/mL); type: functional
Rattus norvegicus [32] = test: Induction of growth hormone level in adult Sprague-Dawley rat blood at 10 mg/kg, po administered as single dose measured after 40 mins by ELISA method (reference value: 14.4+/-6.9 ng/mL); type: functional
Rattus norvegicus [33] = test: Induction of growth hormone level in Juvenile Sprague-Dawley rat blood at 10 mg/kg, po administered as single dose measured after 20 mins by ELISA method (reference value: 29.1+/-8.6 ng/mL); type: functional
Rattus norvegicus [34] = test: Induction of growth hormone level in adult Sprague-Dawley rat blood by measuring AUC(0 to 40 mins) at 10 mg/kg, po administered as single dose by ELISA method (reference value: 7.0+/-1.7 ng/mL); type: functional, organism-based
Rattus norvegicus [35] = test: Induction of growth hormone level in Juvenile Sprague-Dawley rat blood at 10 mg/kg, po administered as single dose measured immediately by ELISA method (reference value: 28.5+/-8.7 ng/mL); type: functional
Rattus norvegicus [36] = test: Induction of growth hormone level in adult Sprague-Dawley rat blood at 10 mg/kg, po administered as single dose measured after 20 mins by ELISA method (reference value: 4.9+/-1.1 ng/mL); type: functional
Rattus norvegicus [37] = test: Induction of growth hormone level in adult Sprague-Dawley rat blood at 10 mg/kg, po administered as single dose measured immediately by ELISA method (reference value: 12.6+/-4.4 ng/mL); type: functional
Rattus norvegicus [38] = test: Induction of growth hormone level in Juvenile Sprague-Dawley rat blood by measuring AUC(0 to 40 mins) at 10 mg/kg, po administered as single dose by ELISA method (reference value: 20.2+/-4.3 ng/mL); type: functional, organism-based
Rattus norvegicus [39] = test: Induction of growth hormone level in Juvenile Sprague-Dawley rat blood at 10 mg/kg, po administered as single dose measured after 40 mins by ELISA method (reference value: 40.1+/-11.0 ng/mL); type: functional
Rattus norvegicus [40] = test: Induction of growth hormone level in Juvenile Sprague-Dawley rat blood at 10 mg/kg, po administered as single dose measured after 1 hr by ELISA method (reference value: 45.2+/-12.5 ng/mL); type: functional
Rattus norvegicus [41] = test: Induction of growth hormone level in Juvenile Sprague-Dawley rat blood at 10 mg/kg, po administered as single dose measured after 10 mins by ELISA method (reference value: 23.2+/-5.6 ng/mL); type: functional
Rattus norvegicus [42] = test: Induction of growth hormone level in Juvenile Sprague-Dawley rat blood at 10 mg/kg, po administered as single dose measured after 4 hrs by ELISA method (reference value: 32.5+/-4.5 ng/mL); type: functional

Chain of Growth hormone secretagogue receptor type 1 (O08725 whole entry): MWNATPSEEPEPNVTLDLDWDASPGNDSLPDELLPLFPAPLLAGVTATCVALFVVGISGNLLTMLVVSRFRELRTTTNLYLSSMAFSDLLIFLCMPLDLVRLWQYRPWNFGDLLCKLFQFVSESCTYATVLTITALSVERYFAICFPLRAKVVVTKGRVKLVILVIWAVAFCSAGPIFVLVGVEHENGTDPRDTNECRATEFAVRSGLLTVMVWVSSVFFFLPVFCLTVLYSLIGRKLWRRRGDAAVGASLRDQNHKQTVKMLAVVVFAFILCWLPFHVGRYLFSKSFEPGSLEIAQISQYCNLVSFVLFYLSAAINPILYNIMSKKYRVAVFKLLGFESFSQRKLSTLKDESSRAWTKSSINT
Chain of Growth hormone secretagogue receptor type 1 (Rattus norvegicus) (O08725 whole entry): as above

## CC(C)(N)C(=O)N[C@H](COCc1ccccc1)C(=O)N1CCC2=NN(C3CC3)C(=O)[C@]2(Cc2ccccn2)C1
[1]
  Tmax: 15 min
Rattus norvegicus [2]
  Activity: 61.1 ng/mL
Rattus norvegicus [3]
  AUC: 58.6 ng·h/mL
Rattus norvegicus [4]
  Activity: 41.9 ng/mL
Rattus norvegicus [5]
  Activity: 168.5 ng/mL
Rattus norvegicus [6]
  Activity: 65.8 ng/mL
Rattus norvegicus [7]
  Activity: 17.2 ng/mL
Rattus norvegicus [8]
  Activity: 91.8 ng/mL
CHO [9]
  Activity: 104%
[10]
  EC50: 0.021 nM
CHO [11]
  Activity: 123%
[12]
  clearance: 48 mL/min/kg
CHO [13]
  Activity: 87.4%
[14]
  Activity: 114%
Rattus norvegicus [15]
  Activity: 220.5 ng/mL
Rattus norvegicus [16]
  AUC: 104 ng·h/mL
[17]
  EC50: 0.068 nM
[18]
  half-life: 72.6 min
[19]
  EC50: 0.8 nM
Rattus norvegicus [20]
  Activity: 34.5 ng/mL
Rattus norvegicus [21]
  Activity: 54.5 ng/mL
Rattus norvegicus [22]
  Activity: 81.8 ng/mL
[23]
  Cmax: 139 ng/mL
[24]
  half-life: 48 min
[25]
  AUC at 4 h: 186 ng·h/mL
Rattus norvegicus [26]
  Activity: 178.4 ng/mL
[27]
  Vd: 3.3 L/kg
[28]
  bioavailability: 26.2%
[29]
  EC50: 0.092 nM

## CC(C)(N)C(=O)N[C@H](COCc1ccccc1)C(=O)N1CCC2(CC1)CN(S(C)(=O)=O)c1ccccc12 [IBUTAMOREN]
Rattus norvegicus [30]
  Activity: 52.4 ng/mL
Rattus norvegicus [31]
  Activity: 133.9 ng/mL
Rattus norvegicus [32]
  Activity: 25 ng/mL
Rattus norvegicus [33]
  Activity: 227.8 ng/mL
Rattus norvegicus [34]
  AUC: 45.6 ng·h/mL
Rattus norvegicus [35]
  Activity: 58.1 ng/mL
Rattus norvegicus [36]
  Activity: 71.3 ng/mL
Rattus norvegicus [37]
  Activity: 15.4 ng/mL
Rattus norvegicus [38]
  AUC: 123 ng·h/mL
Rattus norvegicus [39]
  Activity: 76.3 ng/mL
Rattus norvegicus [40]
  Activity: 76.2 ng/mL
Rattus norvegicus [41]
  Activity: 290.9 ng/mL
Rattus norvegicus [42]
  Activity: 61.3 ng/mL
